Measured values published in PubChem BioAssay (NCI).
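All cell lines were grown in 96-well plates and treated with compound for 48 hours. At the GI50, growth is halved. TGI denotes the concentration required for complete inhibition of growth.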

Legend:
Experiment in all cases: NCI tumour cell line growth inhibition, 48 h
SW-620 colon = tested on: SW-620 colon
SNB-75 CNS = tested on: SNB-75 CNS
MDA-MB-435 = tested on: MDA-MB-435
HT29 colon = tested on: HT29 colon
A498 renal = tested on: A498 renal
COLO 205 colon = tested on: COLO 205 colon
OVCAR-8 ovarian = tested on: OVCAR-8 ovarian
UACC-62 melanoma = tested on: UACC-62 melanoma
MCF7 breast = tested on: MCF7 breast
MOLT-4 leukemia = tested on: MOLT-4 leukemia
KM12 colon = tested on: KM12 colon
CAKI-1 renal = tested on: CAKI-1 renal
TK-10 renal = tested on: TK-10 renal
SN12C renal = tested on: SN12C renal
SR leukemia = tested on: SR leukemia
PC-3 prostate = tested on: PC-3 prostate
HCC-2998 colon = tested on: HCC-2998 colon
SF-539 CNS = tested on: SF-539 CNS
NCI-H226 lung = tested on: NCI-H226 lung
K-562 leukemia = tested on: K-562 leukemia
A549 NSCLC = tested on: A549 NSCLC
NCI-H460 lung = tested on: NCI-H460 lung
HCT-15 colon = tested on: HCT-15 colon
SK-MEL-5 melanoma = tested on: SK-MEL-5 melanoma
U251 CNS = tested on: U251 CNS
EKVX NSCLC = tested on: EKVX NSCLC
BT-549 breast = tested on: BT-549 breast
MALME-3M melanoma = tested on: MALME-3M melanoma
T-47D breast = tested on: T-47D breast
SK-OV-3 ovarian = tested on: SK-OV-3 ovarian
NCI-H23 lung = tested on: NCI-H23 lung
SK-MEL-2 melanoma = tested on: SK-MEL-2 melanoma
HL-60(TB) leukemia = tested on: HL-60(TB) leukemia
HOP-62 NSCLC = tested on: HOP-62 NSCLC
OVCAR-4 ovarian = tested on: OVCAR-4 ovarian
CCRF-CEM leukemia = tested on: CCRF-CEM leukemia
OVCAR-5 ovarian = tested on: OVCAR-5 ovarian
NCI-H522 lung = tested on: NCI-H522 lung
HS 578T breast = tested on: HS 578T breast
786-0 renal = tested on: 786-0 renal
SF-295 CNS = tested on: SF-295 CNS
SK-MEL-28 melanoma = tested on: SK-MEL-28 melanoma
LOX IMVI melanoma = tested on: LOX IMVI melanoma
HCT-116 colon = tested on: HCT-116 colon
SNB-19 CNS = tested on: SNB-19 CNS
NCI/ADR-RES ovarian = tested on: NCI/ADR-RES ovarian
M14 melanoma = tested on: M14 melanoma
RPMI-8226 leukemia = tested on: RPMI-8226 leukemia
IGROV1 ovarian = tested on: IGROV1 ovarian
DU-145 prostate = tested on: DU-145 prostate
SF-268 CNS = tested on: SF-268 CNS
MDA-MB-231 breast = tested on: MDA-MB-231 breast
ACHN renal = tested on: ACHN renal
UACC-257 melanoma = tested on: UACC-257 melanoma
UO-31 renal = tested on: UO-31 renal
RXF 393 renal = tested on: RXF 393 renal

O=C(NCc1ncc[nH]1)c1ccc(-c2nc3ccc4[nH]ncc4c3c3c2CCCC3)cc1
GI50 (SW-620 colon): 1.36 µM
TGI (SW-620 colon): > 50 µM
GI50 (SNB-75 CNS): 1.61 µM
TGI (SNB-75 CNS): 5.2 µM
GI50 (MDA-MB-435): 1.66 µM
TGI (MDA-MB-435): 7.05 µM
GI50 (HT29 colon): 2.66 µM
TGI (HT29 colon): > 50 µM
GI50 (A498 renal): 0.958 µM
TGI (A498 renal): 4.38 µM
GI50 (COLO 205 colon): 1.12 µM
TGI (COLO 205 colon): 3.44 µM
GI50 (OVCAR-8 ovarian): 1.81 µM
TGI (OVCAR-8 ovarian): 17.3 µM
GI50 (UACC-62 melanoma): 1.38 µM
TGI (UACC-62 melanoma): 6.47 µM
GI50 (MCF7 breast): 1.17 µM
TGI (MCF7 breast): 6.76 µM
GI50 (MOLT-4 leukemia): 1.51 µM
TGI (MOLT-4 leukemia): 16.8 µM
GI50 (KM12 colon): 1.61 µM
TGI (KM12 colon): 9.87 µM
GI50 (CAKI-1 renal): 1.08 µM
TGI (CAKI-1 renal): 4.8 µM
GI50 (TK-10 renal): 1.66 µM
TGI (TK-10 renal): > 50 µM
GI50 (SN12C renal): 1.69 µM
TGI (SN12C renal): 10.6 µM
GI50 (SR leukemia): 0.549 µM
TGI (SR leukemia): 27.7 µM
GI50 (PC-3 prostate): 1.81 µM
TGI (PC-3 prostate): 32 µM
GI50 (HCC-2998 colon): 1.94 µM
TGI (HCC-2998 colon): 8.73 µM
GI50 (SF-539 CNS): 1.21 µM
TGI (SF-539 CNS): 5.85 µM
GI50 (NCI-H226 lung): 1.4 µM
TGI (NCI-H226 lung): 17.3 µM
GI50 (K-562 leukemia): 2.02 µM
TGI (K-562 leukemia): > 50 µM
GI50 (A549 NSCLC): 8.04 µM
TGI (A549 NSCLC): > 50 µM
GI50 (NCI-H460 lung): 1.94 µM
TGI (NCI-H460 lung): 7.83 µM
GI50 (HCT-15 colon): 6.28 µM
TGI (HCT-15 colon): > 50 µM
GI50 (SK-MEL-5 melanoma): 1.93 µM
TGI (SK-MEL-5 melanoma): 7.51 µM
GI50 (U251 CNS): 1.68 µM
TGI (U251 CNS): 11.6 µM
GI50 (EKVX NSCLC): 2.86 µM
TGI (EKVX NSCLC): 24.2 µM
GI50 (BT-549 breast): 0.957 µM
TGI (BT-549 breast): 5.48 µM
GI50 (MALME-3M melanoma): 1.31 µM
TGI (MALME-3M melanoma): 3.67 µM
GI50 (T-47D breast): 1.18 µM
TGI (T-47D breast): 6.13 µM
GI50 (SK-OV-3 ovarian): 0.707 µM
TGI (SK-OV-3 ovarian): 3.3 µM
GI50 (NCI-H23 lung): 1.82 µM
TGI (NCI-H23 lung): 8.21 µM
GI50 (SK-MEL-2 melanoma): 1.1 µM
TGI (SK-MEL-2 melanoma): 2.87 µM
GI50 (HL-60(TB) leukemia): 1.64 µM
TGI (HL-60(TB) leukemia): 8.98 µM
GI50 (HOP-62 NSCLC): 1.5 µM
TGI (HOP-62 NSCLC): 9.57 µM
GI50 (OVCAR-4 ovarian): 3.19 µM
TGI (OVCAR-4 ovarian): 19.7 µM
GI50 (CCRF-CEM leukemia): 1.29 µM
TGI (CCRF-CEM leukemia): > 50 µM
GI50 (OVCAR-5 ovarian): 9.18 µM
TGI (OVCAR-5 ovarian): > 50 µM
GI50 (NCI-H522 lung): 0.869 µM
TGI (NCI-H522 lung): 2.85 µM
GI50 (HS 578T breast): 1.25 µM
TGI (HS 578T breast): 7.65 µM
GI50 (786-0 renal): 1.97 µM
TGI (786-0 renal): 12.1 µM
GI50 (SF-295 CNS): 3 µM
TGI (SF-295 CNS): 14.9 µM
GI50 (SK-MEL-28 melanoma): 1.19 µM
TGI (SK-MEL-28 melanoma): 4.6 µM
GI50 (LOX IMVI melanoma): 1.46 µM
TGI (LOX IMVI melanoma): 6.73 µM
GI50 (HCT-116 colon): 0.58 µM
TGI (HCT-116 colon): > 50 µM
GI50 (SNB-19 CNS): 1.85 µM
TGI (SNB-19 CNS): 38.1 µM
GI50 (NCI/ADR-RES ovarian): > 50 µM
TGI (NCI/ADR-RES ovarian): > 50 µM
GI50 (M14 melanoma): 1.43 µM
TGI (M14 melanoma): 7.44 µM
GI50 (RPMI-8226 leukemia): 6.15 µM
TGI (RPMI-8226 leukemia): 23.4 µM
GI50 (IGROV1 ovarian): 0.818 µM
TGI (IGROV1 ovarian): 7.64 µM
GI50 (DU-145 prostate): 2.17 µM
TGI (DU-145 prostate): > 50 µM
GI50 (SF-268 CNS): 1.33 µM
TGI (SF-268 CNS): 8.88 µM
GI50 (MDA-MB-231 breast): 1.84 µM
TGI (MDA-MB-231 breast): 10.9 µM
GI50 (ACHN renal): 1.6 µM
TGI (ACHN renal): > 50 µM
GI50 (UACC-257 melanoma): 3.61 µM
TGI (UACC-257 melanoma): 18.8 µM
GI50 (UO-31 renal): 7.57 µM
TGI (UO-31 renal): 22.6 µM
GI50 (RXF 393 renal): 0.603 µM
TGI (RXF 393 renal): 2.76 µM
